From patent publication US20240158412A1 (Faxian Therapeutics, LLC, priority 2021, published 2024)

molecular target: USP7 (Homo sapiens, UniProt Q93009); test: biochemical
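Also: fluorescence intensity readout of USP7 enzymatic activity, reaction incubated 90 min at room temperature.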

USP7, sequence (Q93009 whole entry): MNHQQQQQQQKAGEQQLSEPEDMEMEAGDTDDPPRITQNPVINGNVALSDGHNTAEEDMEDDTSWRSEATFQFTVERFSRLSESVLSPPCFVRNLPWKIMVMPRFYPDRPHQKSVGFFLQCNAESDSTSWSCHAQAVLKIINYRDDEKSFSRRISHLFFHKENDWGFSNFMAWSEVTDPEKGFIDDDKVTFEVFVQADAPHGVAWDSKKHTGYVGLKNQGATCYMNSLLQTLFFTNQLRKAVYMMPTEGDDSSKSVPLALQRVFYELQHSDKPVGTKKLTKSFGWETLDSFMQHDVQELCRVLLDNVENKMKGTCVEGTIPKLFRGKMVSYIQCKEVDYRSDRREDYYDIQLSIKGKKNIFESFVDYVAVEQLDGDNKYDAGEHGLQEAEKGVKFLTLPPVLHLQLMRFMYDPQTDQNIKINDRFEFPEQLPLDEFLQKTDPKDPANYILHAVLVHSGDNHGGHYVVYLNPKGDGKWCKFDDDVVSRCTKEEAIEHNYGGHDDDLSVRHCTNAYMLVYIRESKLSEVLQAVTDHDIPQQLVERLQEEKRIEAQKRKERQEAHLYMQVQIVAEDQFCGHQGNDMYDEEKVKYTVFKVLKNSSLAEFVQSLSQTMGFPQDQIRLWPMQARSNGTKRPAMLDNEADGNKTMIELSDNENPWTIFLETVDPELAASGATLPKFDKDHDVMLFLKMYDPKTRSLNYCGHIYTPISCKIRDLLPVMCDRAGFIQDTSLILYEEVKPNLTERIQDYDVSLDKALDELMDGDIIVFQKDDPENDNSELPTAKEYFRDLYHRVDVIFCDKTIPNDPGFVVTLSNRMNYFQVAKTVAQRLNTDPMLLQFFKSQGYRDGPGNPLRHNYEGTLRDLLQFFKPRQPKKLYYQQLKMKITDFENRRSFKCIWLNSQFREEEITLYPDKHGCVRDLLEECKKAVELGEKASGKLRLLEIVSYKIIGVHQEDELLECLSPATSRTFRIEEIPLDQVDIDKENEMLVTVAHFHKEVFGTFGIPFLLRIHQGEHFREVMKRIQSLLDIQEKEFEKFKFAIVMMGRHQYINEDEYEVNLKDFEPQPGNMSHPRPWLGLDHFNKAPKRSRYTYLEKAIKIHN

First: N[C@H]1C[C@@H](N2CCCc3cc(Cl)cc(-c4ccnc5cc(CN6C(=O)CCC6=O)sc45)c32)C1 (single isomer, unassigned) [Example 42a, cis-1-((7-(1-(3-aminocyclobutyl)-6-chloro-1,2,3,4-tetrahydroquinolin-8-yl)thieno[3,2-b]pyridin-2-yl)methyl)pyrrolidine-2,5-dione]
Second: N[C@H]1C[C@H](N2CCCc3cc(Cl)cc(-c4ccnc5cc(CN6C(=O)CCC6=O)sc45)c32)C1 (single isomer, unassigned) [Example 42b, trans-1-((7-(1-(3-aminocyclobutyl)-6-chloro-1,2,3,4-tetrahydroquinolin-8-yl)thieno[3,2-b]pyridin-2-yl)methyl)pyrrolidine-2,5-dione]
The IC50 of the first is lower: less than 10 nM for the first, 10 to 100 nM for the second. The first is the more potent here.

First: O=C1CCC(=O)N1Cc1cc2nccc(-c3cc(Cl)cc4c3N(C3CNC3)C[C@@H]3C[C@H]43)c2s1 (single isomer, unassigned) [Example 43a]
Second: O=C1CCC(=O)N1Cc1cc2nccc(-c3cc(Cl)cc4c3N(C3CNC3)C[C@H]3C[C@@H]43)c2s1 (single isomer, unassigned) [Example 43b]
The IC50 of the first is higher: greater than 1000 nM for the first, 10 to 100 nM for the second. The second is the more potent here.

First: C[C@H]1CCc2cc(Cl)cc(-c3ccnc4cc(CN5C(=O)CCC5=O)sc34)c2N1[C@@H]1CCNC1 (single isomer, unassigned) [Example 44a]
Second: C[C@H]1CCc2cc(Cl)cc(-c3ccnc4cc(CN5C(=O)CCC5=O)sc34)c2N1[C@H]1CCNC1 (single isomer, unassigned) [Example 44b]
The IC50 of the first is lower: 10 to 100 nM for the first, 101 to 1000 nM for the second.

Compared with `C[C@@H]1CCc2cc(Cl)cc(-c3ccnc4cc(CN5C(=O)CCC5=O)sc34)c2N1[C@@H]1CCNC1` (single isomer, unassigned) [Example 44c], `O=C1CCC(=O)N1Cc1cc2nccc(-c3cc(Cl)cc4c3N([C@H]3CCCNC3)CCC4)c2s1` (single isomer, unassigned) [Example 51a] is lower in IC50: 10 to 100 nM for the first, less than 10 nM for the second.

`O=C1CCC(=O)N1Cc1cc2nccc(-c3cc(Cl)cc4c3N([C@H]3CCCNCC3)CCC4)c2s1` (single isomer, unassigned) [Example 47a] and `O=C1CCC(=O)N1Cc1cc2nccc(-c3cc(Cl)cc4c3N([C@@H]3CCCNCC3)CCC4)c2s1` (single isomer, unassigned) [Example 47b] cannot be ordered by IC50: less than 10 nM for the first, less than 10 nM for the second.

`O=C1CCC(=O)N1Cc1cc2nccc(-c3cc(Cl)cc4c3N([C@@H]3CCCNC3)CCC4)c2s1` (single isomer, unassigned) [Example 51b] and `O=C1CCC(=O)N1Cc1cc2nccc(-c3cc(Cl)cc4c3N([C@H]3CNC5(CCC5)C3)CCC4)c2s1` (single isomer, unassigned) [Example 139a] fall in the same range of IC50: 10 to 100 nM for the first, 10 to 100 nM for the second.

First: O=C1CCC(=O)N1Cc1cc2nccc(-c3cc(Cl)cc4c3C(N3CCNCC3)CCO4)c2s1 (single isomer, unassigned) [Example 52b]
Second: O=C1CCC(=O)N1Cc1cc2nccc(-c3cc(Cl)cc4c3N([C@@H]3CCNC3)CC3CC43)c2s1 (single isomer, unassigned) [Example 113a]
The IC50 of the first is lower: less than 10 nM for the first, 101 to 1000 nM for the second. The first is the more potent here.

First: O=C1CCC(=O)N1Cc1cc2nccc(-c3cc(C(F)(F)F)cc4c3N([C@@H]3CCNC3)CCC4)c2s1 (single isomer, unassigned) [Example 78]
Second: O=C1CCC(=O)N1Cc1cc2nccc(-c3cc(C(F)(F)F)cc4c3N([C@H]3CCNC3)CCC4)c2s1 (single isomer, unassigned) [Example 79]
The IC50 of the first is higher: 10 to 100 nM for the first, less than 10 nM for the second. The second is the more potent here.

First: O=c1ccn(CC(F)F)c(=O)n1Cc1cc2nccc(-c3cc(C(F)(F)F)cc4c3N([C@@H]3CCNC3)CCC4)c2s1 (single isomer, unassigned) [Example 80]
Second: C[C@H]1C[C@@H](N2CCCc3cc(Cl)cc(-c4ccnc5cc(Cn6c(=O)ccn(CC(F)(F)F)c6=O)sc45)c32)CN1 (single isomer, unassigned) [Example 95a]
The IC50 of the first is higher: 10 to 100 nM for the first, less than 10 nM for the second. The second is the more potent here.

First: O=c1ccn(CC(F)(F)F)c(=O)n1Cc1cc2ncnc(-c3cc(Cl)cc4c3N([C@@H]3CCNC3)CCC4)c2s1 (single isomer, unassigned) [Example 90]
Second: C[C@@H]1C[C@H](N2CCCc3cc(Cl)cc(-c4ccnc5cc(Cn6c(=O)ccn(CC(F)(F)F)c6=O)sc45)c32)CN1 (single isomer, unassigned) [Example 95b]
The IC50 of the first is lower: less than 10 nM for the first, 10 to 100 nM for the second. The first is the more potent here.

Compared with `O=C1CCC(=O)N1Cc1cc2nccc(-c3cc(Cl)cc4c3N([C@H]3CNC[C@@H]3F)CCC4)c2s1` (single isomer, unassigned) [Example 96a], `O=C1CCC(=O)N1Cc1cc2nccc(-c3cc(Cl)cc4c3N([C@@H]3CNC[C@H]3F)CCC4)c2s1` (single isomer, unassigned) [Example 96b] is higher in IC50: less than 10 nM for the first, 10 to 100 nM for the second. The first is the more potent here.

Compared with `CO[C@H]1CNC[C@@H]1N1CCCc2cc(Cl)cc(-c3ccnc4cc(CN5C(=O)CCC5=O)sc34)c21` (single isomer, unassigned) [Example 97a], `CO[C@@H]1CNC[C@H]1N1CCCc2cc(Cl)cc(-c3ccnc4cc(CN5C(=O)CCC5=O)sc34)c21` (single isomer, unassigned) [Example 97b] is lower in IC50: 101 to 1000 nM for the first, less than 10 nM for the second.

Compared with `Cn1cc(Cc2cc3nccc(-c4cc(Cl)cc5c4N([C@@H]4CCNC4)CCC5)c3s2)nn1` (single isomer, unassigned) [Example 98], `Cn1cc(Cc2cc3nccc(-c4cc(Cl)cc5c4N([C@H]4CCNC4)CCC5)c3s2)nn1` (single isomer, unassigned) [Example 99] is lower in IC50: 101 to 1000 nM for the first, 10 to 100 nM for the second.

First: N#Cc1cc2c(c(-c3ccnc4cc(Cn5c(=O)ccn(CC(F)(F)F)c5=O)sc34)c1)N([C@H]1CCN([C@@H]3CC[C@H]3O)C1)CCC2 (single isomer, unassigned) [Example 107a]
Second: N#Cc1cc2c(c(-c3ccnc4cc(Cn5c(=O)ccn(CC(F)(F)F)c5=O)sc34)c1)N([C@H]1CCN([C@H]3CC[C@@H]3O)C1)CCC2 (single isomer, unassigned) [Example 107b]
The IC50 of the first is lower: less than 10 nM for the first, 10 to 100 nM for the second. The first is the more potent here.

`O=C1CCC(=O)N1Cc1sc2c(-c3cc(Cl)cc4c3N(C3CCNC3)CCC4)ccnc2c1F` (single isomer, unassigned) [Example 108a] and `O=C1CCC(=O)N1Cc1cc2nccc(-c3cc(Cl)cc4c3N([C@@H]3CNC5(CCC5)C3)CCC4)c2s1` (single isomer, unassigned) [Example 139b] cannot be ordered by IC50: less than 10 nM for the first, less than 10 nM for the second.

`O=C1CCC(=O)N1Cc1sc2c(-c3cc(Cl)cc4c3N(C3CCNC3)CCC4)ccnc2c1F` (single isomer, unassigned) [Example 108b] and `O=C1CCC(=O)N1Cc1cc2nccc(-c3cc(Cl)cc4c3N([C@@H]3CCNC3)CC3CC43)c2s1` (single isomer, unassigned) [Example 113b] fall in the same range of IC50: 10 to 100 nM for the first, 10 to 100 nM for the second.

First: O=C1CCC(=O)N1Cc1cc2nccc(-c3cccc4c3N([C@H]3CCNC3)CCO4)c2s1 (single isomer, unassigned) [Example 111a]
Second: O=C1CCC(=O)N1Cc1cc2nccc(-c3cccc4c3N([C@@H]3CCNC3)CCO4)c2s1 (single isomer, unassigned) [Example 111b]
The IC50 of the first is lower: 10 to 100 nM for the first, greater than 1000 nM for the second.

First: C[C@H](c1cc2nccc(-c3cc(C#N)cc4c3N([C@H]3CCNC3)CCC4)c2s1)N1C(=O)CCC1=O (single isomer, unassigned) [Example 112a]
Second: C[C@@H](c1cc2nccc(-c3cc(C#N)cc4c3N([C@H]3CCNC3)CCC4)c2s1)N1C(=O)CCC1=O (single isomer, unassigned) [Example 112b]
The IC50 of the first is lower: 10 to 100 nM for the first, 101 to 1000 nM for the second. The first is the more potent here.

First: C[C@H](c1cc2nccc(-c3cc(C#N)cc4c3N([C@@H]3CCNC3)CCC4)c2s1)N1C(=O)CCC1=O (single isomer, unassigned) [Example 112c]
Second: C[C@@H](c1cc2nccc(-c3cc(C#N)cc4c3N([C@@H]3CCNC3)CCC4)c2s1)N1C(=O)CCC1=O (single isomer, unassigned) [Example 112d]
The IC50 of the first is lower: 101 to 1000 nM for the first, greater than 1000 nM for the second.

First: O=C1CCC(=O)N1Cc1cc2nccc(-c3cc(Cl)cc4c3N(C3CCNC3)C[C@@H]3C[C@H]43)c2s1 (single isomer, unassigned) [Example 113c]
Second: O=C1CCC(=O)N1Cc1cc2nccc(-c3cc(Cl)cc4c3N([C@H]3CCNC3)C[C@H]3C[C@@H]43)c2s1 (single isomer, unassigned) [Example 113d]
The IC50 of the first is higher: 10 to 100 nM for the first, less than 10 nM for the second.

First: CC1(C)C[C@@H](N2CCCc3cc(Cl)cc(-c4ccnc5cc(Cn6c(=O)ccn(CC(F)(F)F)c6=O)sc45)c32)CN1 (single isomer, unassigned) [Example 118a]
Second: CC1(C)C[C@H](N2CCCc3cc(Cl)cc(-c4ccnc5cc(Cn6c(=O)ccn(CC(F)(F)F)c6=O)sc45)c32)CN1 (single isomer, unassigned) [Example 118b]
The IC50 of the first is higher: 10 to 100 nM for the first, less than 10 nM for the second. The second is the more potent here.

`Cc1cnn(Cc2cc3nccc(-c4cc(C#N)cc5c4N(C4CNC(C)(C)C4)CCC5)c3s2)c(=O)c1` (single isomer, unassigned) [Example 120a] and `CC1(C)CC(N2CCOc3cc(C#N)cc(-c4ccnc5cc(Cn6c(=O)ccn(CC(F)(F)F)c6=O)sc45)c32)CN1` (single isomer, unassigned) [Example 133a] cannot be ordered by IC50: less than 10 nM for the first, less than 10 nM for the second.

`Cc1cnn(Cc2cc3nccc(-c4cc(C#N)cc5c4N(C4CNC(C)(C)C4)CCC5)c3s2)c(=O)c1` (single isomer, unassigned) [Example 120b] and `CC1(C)CC(N2CCOc3cc(C#N)cc(-c4ccnc5cc(Cn6c(=O)ccn(CC(F)(F)F)c6=O)sc45)c32)CN1` (single isomer, unassigned) [Example 133b] fall in the same range of IC50: 101 to 1000 nM for the first, 101 to 1000 nM for the second.

First: O=C1CCC(=O)N1Cc1cc2nccc(-c3cc(Cl)cc4c3N([C@@H]3CN(C[C@H](O)C(F)(F)F)C5(CCC5)C3)CCC4)c2s1 (single isomer, unassigned) [Example 143a]
Second: O=C1CCC(=O)N1Cc1cc2nccc(-c3cc(Cl)cc4c3N([C@@H]3CN(C[C@@H](O)C(F)(F)F)C5(CCC5)C3)CCC4)c2s1 (single isomer, unassigned) [Example 143b]
The IC50 of the first is lower: 10 to 100 nM for the first, 101 to 1000 nM for the second.

`O=C1CCC(=O)N1Cc1cc2ncnc(-c3cc(Cl)cc4c3N(C3CNC5(CCC5)C3)CCC4)c2s1` (single isomer, unassigned) [Example 161a] and `O=c1ccn(C2CC2)c(=O)n1Cc1cc2nccc(-c3cc(C(F)(F)F)cc4c3N(C3CNC5(CCC5)C3)CCC4)c2s1` (single isomer, unassigned) [Example 162a] cannot be ordered by IC50: less than 10 nM for the first, less than 10 nM for the second.

In the case of `O=C1CCC(=O)N1Cc1cc2ncnc(-c3cc(Cl)cc4c3N(C3CNC5(CCC5)C3)CCC4)c2s1` (single isomer, unassigned) [Example 161b], the IC50 is reported as 101 to 1000 nM.
